Measured values reported in paper PMC12630025, “Characterization and inhibitor sensitivity of ARAF, BRAF, and CRAF kinases [drawing 1]” (The Journal of Biological Chemistry, 2025).
Where “and” joins values, the source holds several entries; their conditions need not be identical. Identical values can stand only once. Like-named read-outs stand apart in the source and are kept apart here.

Key:
Format in all cases: biochemical
[1] = target: T1, CRAF^SSDD (MEK1^SASA:CRAF^SSDD:14-3-3 dimer complex) (Homo sapiens, UniProt P04049, Y340D/Y341D); assay: TR-FRET kinase inhibition assay (phosphorylation of biotinylated MEK1), CRAF SSDD dimer complex; conditions: for CRAF^SSDD nH (Hill slope): four-parameter fit, 200 μM ATP; for CRAF^SSDD IC50: 1 nM enzyme
T1 construct: His6 (N); StrepII (N); made in house; host or cells: insect cells (baculovirus)

[2] = target: T2, BRAF^WT (MEK1^SASA:BRAF^WT:14-3-3 dimer complex) (Homo sapiens, UniProt P15056); assay: biochemical; conditions: for effect of increasing ATP concentration on IC50 for BRAF^WT dimers: 10, 100, 1000 μM ATP
T2 construct: His6 (N); made in house; host or cells: SF9 insect cells (baculovirus)
T2 sequence (P15056 419-766, one chain of several): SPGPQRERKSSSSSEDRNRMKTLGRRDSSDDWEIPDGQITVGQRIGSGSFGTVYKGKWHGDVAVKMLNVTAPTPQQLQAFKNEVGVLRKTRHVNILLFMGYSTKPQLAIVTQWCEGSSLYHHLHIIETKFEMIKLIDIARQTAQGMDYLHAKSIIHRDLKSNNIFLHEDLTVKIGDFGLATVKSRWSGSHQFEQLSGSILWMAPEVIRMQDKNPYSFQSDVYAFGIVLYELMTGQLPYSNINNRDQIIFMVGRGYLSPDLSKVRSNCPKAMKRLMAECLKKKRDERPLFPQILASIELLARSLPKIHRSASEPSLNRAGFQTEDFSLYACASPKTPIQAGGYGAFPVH

[3] = target: T3, CRAF^WT (MEK1:CRAF^WT:14-3-3 dimer complex) (Homo sapiens, UniProt P04049); assay: TR-FRET kinase inhibition assay (phosphorylation of biotinylated MEK1), CRAF WT dimer complex; conditions: for CRAF^WT nH (Hill slope): four-parameter fit
T3 construct: His6 (N); made in house; host or cells: insect cells (baculovirus)

[4] = target: T4, ARAF^SSDD (MEK1^SASA:ARAF^SSDD-14-3-3ε dimer complex) (Homo sapiens, UniProt P10398, G300S/Y301D/Y302D); assay: TR-FRET kinase inhibition assay (phosphorylation of biotinylated MEK1), ARAF dimer complex; conditions: for IC50: 10 nM enzyme, 250 nM MEK1, 200 μM ATP, 40 min preincubation, 30 min reaction; for ARAF^SSDD nH (Hill slope): four-parameter fit, 200 μM ATP; for cooperativity of inhibition of ARAF^SSDD: from Hill constants, less than −1.0 indicates positive cooperativity
T4 construct: ARAF^274-606, G300S, Y301/302D-14-3-3 ε with N-terminal His6 and StrepII tags; His6 (N); StrepII (N); made in house; host or cells: SF9 insect cells (baculovirus)
T4 sequence (P10398 274-606 G300S/Y301D/Y302D): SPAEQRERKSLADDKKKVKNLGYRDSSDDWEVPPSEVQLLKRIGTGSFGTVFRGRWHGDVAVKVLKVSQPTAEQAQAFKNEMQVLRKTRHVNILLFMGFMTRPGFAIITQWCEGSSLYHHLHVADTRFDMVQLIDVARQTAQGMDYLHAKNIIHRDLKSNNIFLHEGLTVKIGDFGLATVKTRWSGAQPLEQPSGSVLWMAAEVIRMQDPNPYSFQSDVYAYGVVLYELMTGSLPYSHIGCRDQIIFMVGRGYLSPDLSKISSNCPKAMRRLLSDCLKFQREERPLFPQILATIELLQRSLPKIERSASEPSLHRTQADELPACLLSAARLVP

[5] = target: T5, BRAF^V600E (MEK1^SASA:BRAF^V600E monomer complex) (Homo sapiens, UniProt P15056, V600E); assay: TR-FRET kinase inhibition assay (phosphorylation of biotinylated MEK1), BRAF V600E monomer complex
T5 construct: His6 (N); intein (C, cleaved yes); made in house; host or cells: insect cells (baculovirus)

[6] = test system: CRAF^WT (MEK1:CRAF^WT:14-3-3 dimer complex); assay: TR-FRET kinase inhibition assay (phosphorylation of biotinylated MEK1), CRAF WT dimer complex; conditions: IC50 ratio ARAF/CRAF
[7] = test system: BRAF^WT (MEK1^SASA:BRAF^WT:14-3-3 dimer complex); assay: biochemical; conditions: IC50 ratio versus BRAF^V600E
[8] = 250 nM MEK1, 200 μM ATP, 40 min preincubation, 30 min reaction
[9] = 1 nM enzyme, 250 nM MEK1, 200 μM ATP, 40 min preincubation, 30 min reaction, read-out: BRAF^WT IC50
[10] = IC50 of BRAF^WT at 10 μM ATP, 10 μM ATP
[11] = IC50 of BRAF^WT at 100 μM ATP, 100 μM ATP
[12] = IC50 of BRAF^WT at 1000 μM ATP, 1000 μM ATP
[13] = 4 nM enzyme, 250 nM MEK1, 200 μM ATP, 40 min preincubation, 30 min reaction
[14] = 4 nM enzyme, 250 nM MEK1, 200 μM ATP, 40 min preincubation, 30 min reaction, read-out: CRAF^WT IC50
[15] = read-out: IC50 of BRAF^WT at 100 μM ATP, 100 μM ATP
[16] = 1 nM enzyme, 250 nM MEK1, 200 μM ATP, 40 min preincubation, three-parameter fit

Row | SMILES | CRAF^SSDD nH (Hill slope) [1] | BRAF^WT nH (Hill slope) ([2]; four-parameter fit, 200 μM ATP) | CRAF^WT nH (Hill slope) ([3]; 200 μM ATP) | IC50 [4] | ARAF^SSDD nH (Hill slope) [4] | further results
1 | Cc1ccc(NC(=O)c2cccc(C(C)(C)C#N)c2)cc1Nc1ccc2ncn(C)c(=O)c2c1 [AZ628] | −2.6 | −3.1 | −1.1 | 44.1 ± 21.2 nM | −1.8 | cooperativity of inhibition of ARAF^SSDD [4]: clear positive cooperativity
2 | Cc1ccc2c(Nc3cccc(Cl)c3F)nccc2c1NC(=O)c1csc2c(N)ncnc12 [Belvarafenib] | −3.0 | −3.0 | −1.6 | 69.9 ± 32 nM | −1.3 | CRAF^SSDD IC50 [1, 8]: single-digit nanomolar; IC50 ([1]; read-out: CRAF^SSDD IC50): 5.66 ± 1.12 nM; IC50 [2, 9]: 19.9 ± 0.98 nM; effect of increasing ATP concentration on IC50 for BRAF^WT dimers [2]: only modestly affected; IC50 [2, 10]: 14.2 ± 6.36 nM; IC50 [2, 11]: 21.5 ± 9.23 nM; IC50 [2, 12]: 29.3 ± 8.75 nM; CRAF^WT IC50 [3, 13]: single-digit nanomolar; IC50 [3, 14]: 5.05 ± 1.81 nM; IC50 [5]: 13.3 ± 0.87 nM
3 | CC(C)(C)c1nc(-c2cccc(NS(=O)(=O)c3c(F)cccc3F)c2F)c(-c2ccnc(N)n2)s1 [Dabrafenib] | −1.0 | −1.4 | −0.9 | 9 nM and 8.58 nM | −1.1 | –
4 | OCCn1cc(-c2ccc3c(c2)CC/C3=N\O)c(-c2ccncc2)n1 [GDC0879] | −0.7 | – | −1.0 | – | −0.4 | BRAF^WT nH (Hill slope) [2]: −0.9
5 | CNc1ncc2cc(-c3cc(NC(=O)NCCC(C)(C)C)c(F)cc3C)c(C)nc2n1 [LY3009120] | −2.9 | −2.2 | −1.4 | – | −3.6 | cooperativity of inhibition of ARAF^SSDD [4]: clear positive cooperativity
6 | Cc1ccc(NC(=O)c2ccnc(C(F)(F)F)c2)cc1-c1cc(OCCO)nc(N2CCOCC2)c1 [Naporafenib] | −2.6 | −2.3 | −1.9 | 161 ± 19.2 nM | −3.2 | CRAF^SSDD IC50 [1, 8]: single-digit nanomolar; IC50 ([1]; read-out: CRAF^SSDD IC50): 6.05 ± 2.41 nM; IC50 [2, 9]: 37.1 ± 23 nM; effect of increasing ATP concentration on IC50 for BRAF^WT dimers [2]: only modestly affected; IC50 [2, 10]: 29.1 ± 8.31 nM; IC50 [2, 12]: 54.9 ± 16.5 nM; IC50 [2, 15]: 38.2 ± 11.4 nM; CRAF^WT IC50 [3, 13]: single-digit nanomolar; IC50 [3, 14]: 5.46 ± 2.67 nM; fold greater potency against CRAF dimers than ARAF dimers [6]: approximately 30 fold; cooperativity of inhibition of ARAF^SSDD [4]: clear positive cooperativity; IC50 [5]: 51.3 ± 1.16 nM
7 | CCCS(=O)(=O)Nc1ccc(F)c(C(=O)c2c[nH]c3ncc(Cl)cc23)c1F [PLX4720] | – | – | – | 704 ± 264 nM | −0.5 | –
8 | CCN(C)S(=O)(=O)Nc1ccc(F)c(C(=O)c2c[nH]c3ncc(-c4cnc(C5CC5)nc4)cc23)c1F [PLX7904] | −0.4 | −0.6 | −0.4 | 899 ± 516 nM | −0.6 | IC50 [2, 9]: > 999 nM; IC50 ([2]; read-out: IC50 of BRAF^WT at 10 μM ATP, 10 μM ATP): 170 ± 121 nM; IC50 [2, 15]: > 1000 nM; IC50 ([2]; read-out: IC50 of BRAF^WT at 1000 μM ATP, 1000 μM ATP): > 10000 nM; IC50 [5, 16]: 320 ± 82.4 nM
9 | O=C(c1c(F)ccc(NS(=O)(=O)N2CC[C@@H](F)C2)c1F)c1c[nH]c2ncc(-c3cnc(C4CC4)nc3)cc12 [PLX8394] | −0.5 | −0.9 | −0.5 | 59.6 ± 54.8 nM | −0.8 | IC50 ([1]; read-out: CRAF^SSDD IC50): 279 ± 202 nM; IC50 [2, 9]: 54 ± 40.1 nM; effect of increasing ATP concentration on IC50 for BRAF^WT dimers [2]: shifted as expected; IC50 [2, 10]: 11.1 ± 7.84 nM; IC50 [2, 11]: 38.5 ± 34.2 nM; IC50 [2, 12]: 259 ± 316 nM; fold less active on BRAF^WT dimers than on BRAF^V600E [7]: about 3 fold; IC50 [3, 14]: > 999 nM; IC50 ([3]; 200 μM ATP, read-out: CRAF^WT dimers IC50): > 1000 nM; fold less active on ARAF^SSDD dimers than on BRAF^V600E ([4]; IC50 ratio versus BRAF^V600E): about 3 fold; IC50 [5, 16]: 21.1 ± 1.78 nM
10 | Cc1ccc(C(=O)Nc2ccc(CN3CCN(C)CC3)c(C(F)(F)F)c2)cc1C#Cc1cnc2cccnn12 [Ponatinib] | −1.6 | −2.0 | −0.9 | – | −1.2 | –
11 | CN(C)CCOc1ccc(-c2nc(-c3ccncc3)c(-c3ccc4c(c3)CC/C4=N\O)[nH]2)cc1 [SB590885] | – | – | – | 14.6 ± 3.9 nM | −0.6 | IC50 ([1]; CRAF^SSDD IC50, 1 nM enzyme, 250 nM MEK1, 200 μM ATP, 40 min preincubation, 30 min reaction): 2.5 ± 1.63 nM; BRAF^WT nH (Hill slope) [2]: −1.0; IC50 ([3]; CRAF^WT IC50, 4 nM enzyme, 250 nM MEK1, 200 μM ATP, 40 min preincubation, 30 min reaction): 11.6 ± 1.19 nM
12 | CNC(=O)c1cc(Oc2ccc(NC(=O)Nc3ccc(Cl)c(C(F)(F)F)c3)cc2)ccn1 [Sorafenib] | −1.3 | – | −1.2 | – | −0.9 | –
13 | C[C@@H](NC(=O)c1ncnc(N)c1Cl)c1ncc(C(=O)Nc2cc(C(F)(F)F)c(Cl)cn2)s1 [Tovorafenib] | – | – | – | 225 ± 67.3 nM | −1.4 | –
14 | CCCS(=O)(=O)Nc1ccc(F)c(C(=O)c2c[nH]c3ncc(-c4ccc(Cl)cc4)cc23)c1F [Vemurafenib] | −0.8 | −0.6 | −0.7 | 47.6 ± 9.12 nM | −0.9 | –
